We go through 1 molecule from ChEMBL document CHEMBL5131417, “Metabolic installation of macrophage-recruiting glycan ligand on tumor cell surface for in vivo tumor suppression” (Bioorg Med Chem Lett, 2022).

Series [1] deals with B16-F10. Briefly: Antitumor activity against B16-F10 cells implanted in C57BL/6 mouse assessed as reduction in size and number of metastasis in lung at 30 mg/kg, iv dosed every day after tumor transplantation. Format: functional, organism-based.
Series [2] can be described thus: Drug distribution in plasma membrane of mouse B16-F10 cells at 100 uM incubated for 24 hrs by confocal microscopy. The series is classed as ADME, cell membranes. Particulars: b16-f10, 24 h.
A further series concerns U-87 MG. Briefly: Drug distribution in plasma membrane of human U87 cells at 100 uM incubated for 24 hrs by confocal microscopy. Particulars: u-87mg atcc. The series is classed as ADME, cell-based.
A short description of series [3]: Toxicity in C57BL/6 mouse assessed as induction of abnormal death at 300 mg/kg, iv measured up to 100 days after injection. Format: organism-based. Particulars: in vivo, 2400 h, time < 100 day.
Series [4] in a line: Toxicity in mouse B16-F10 cells assessed as effect on cell viability at 0.1 to 100 uM incubated for 24 hrs. The series is classed as cell-based. The note with it: b16-f10, 24 h, dose 0.1-100 µM.
In series [5] the test system is B16-F10. Briefly: Activation of binding of GFP-expressed mouse B16-F10 cells with mouse RAW264.7 cells at 100 uM incubated for 24 hrs by fluorescence microscopy. The series is classed as functional, cell-based.
The subject of series [6] is B16-F10. Briefly: Antitumor activity against B16-F10 cells implanted in C57BL/6 mouse assessed as reduction in tumor volume at 30 mg/kg, iv dosed on 2nd, 4th, 6th, 8th, 10th, 12th and 14th day post tumor transplantation. The note with it: time 14 day. Details: scale not given: the % may be the effect or the level left. The series is classed as functional.

Each structure is given as a SMILES string. The source made the active and inactive calls. The calls are words filed in the database; no cut-off is given here.

As to `CC(=O)N[C@H]1[C@H]([C@H](O)[C@H](O)CNC(=O)c2cc3c(s2)-c2ccccc2OC3)O[C@@](O)(C(=O)O)C[C@@H]1O`, the result with B16-F10 [1] and with B16-F10 [5] was Active. Also, the Drug uptake result (in series [2]; in the series with U-87 MG) was “Active” each time. Moreover, the Activity entry is on record as “Non-Toxic” in series [3], “Non-Toxic” in series [4] and 60% in the series on B16-F10 [6].
